pIC50, pKi: −log10 of the molar value.
Experiments:
[1] = DRUGMATRIX: Phosphodiesterase PDE4 enzyme inhibition (substrate: [3H]cAMP + cAMP); conditions: u-937, Not Active = under 50% inhibition at 10 µM
Cathepsin G = target: T1, Cathepsin G (Homo sapiens, UniProt P08311); assay type: tissue-based; conditions: neutrophil;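 also: inhibition of Cathepsin G enzyme activity, tested on an AMC-conjugated peptide substrate; in other assays of this panel Not Active means under 50% inhibition at 10 µM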
T1 sequence (P08311 whole entry): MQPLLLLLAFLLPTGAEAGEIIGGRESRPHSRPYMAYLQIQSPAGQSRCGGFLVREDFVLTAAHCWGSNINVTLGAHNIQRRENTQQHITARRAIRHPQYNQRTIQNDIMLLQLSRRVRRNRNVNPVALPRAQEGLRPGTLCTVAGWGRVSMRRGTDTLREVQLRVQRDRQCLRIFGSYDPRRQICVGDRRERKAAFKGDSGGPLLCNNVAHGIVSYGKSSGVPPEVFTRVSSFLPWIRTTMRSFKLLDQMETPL

Cytochrome P450 2E1 = Cytochrome P450 2E1 (Homo sapiens, UniProt P05181); conditions: bti-tn-5b1-4; also: in other assays of this panel Not Active means under 50% inhibition at 10 µM
Cytochrome P450 2E1, sequence (P05181 whole entry): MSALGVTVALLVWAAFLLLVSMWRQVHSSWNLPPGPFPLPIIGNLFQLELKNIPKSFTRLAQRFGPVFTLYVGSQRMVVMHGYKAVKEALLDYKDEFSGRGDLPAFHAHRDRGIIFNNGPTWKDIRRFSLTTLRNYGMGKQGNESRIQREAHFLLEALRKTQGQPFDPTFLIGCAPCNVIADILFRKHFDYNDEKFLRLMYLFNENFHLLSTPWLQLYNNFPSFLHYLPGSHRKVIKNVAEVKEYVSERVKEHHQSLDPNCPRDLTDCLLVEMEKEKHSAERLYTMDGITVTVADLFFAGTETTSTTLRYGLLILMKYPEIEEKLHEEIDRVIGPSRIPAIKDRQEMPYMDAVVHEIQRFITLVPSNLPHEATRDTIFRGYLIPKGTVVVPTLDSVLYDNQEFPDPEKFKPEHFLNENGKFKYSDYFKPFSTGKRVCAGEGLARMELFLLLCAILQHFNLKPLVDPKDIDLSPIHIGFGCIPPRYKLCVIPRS

Neutrophil elastase = target: T2, Neutrophil elastase (Homo sapiens, UniProt P08246); assay type: tissue-based;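 also: inhibition of neutrophil elastase enzyme activity, measured with a p-nitroanilide-linked peptide substrate; in other assays of this panel Not Active means under 50% inhibition at 10 µM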
T2 sequence (P08246 whole entry): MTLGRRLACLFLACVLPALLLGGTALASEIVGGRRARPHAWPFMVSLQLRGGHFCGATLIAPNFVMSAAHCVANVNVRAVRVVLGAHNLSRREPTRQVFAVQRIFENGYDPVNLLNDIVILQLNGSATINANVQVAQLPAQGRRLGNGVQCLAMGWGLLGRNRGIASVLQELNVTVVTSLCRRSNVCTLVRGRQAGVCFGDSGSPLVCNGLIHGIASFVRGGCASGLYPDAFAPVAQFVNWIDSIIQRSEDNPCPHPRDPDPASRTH

Thromboxane-A synthase = target: T3, Thromboxane-A synthase (Homo sapiens, UniProt P24557); test: biochemical; assay type: tissue-based, Platelet; conditions: platelet;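 also: enzyme inhibition assay with PGH2 supplied as substrate; in other assays of this panel Not Active means under 50% inhibition at 10 µM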
T3 sequence (P24557 whole entry): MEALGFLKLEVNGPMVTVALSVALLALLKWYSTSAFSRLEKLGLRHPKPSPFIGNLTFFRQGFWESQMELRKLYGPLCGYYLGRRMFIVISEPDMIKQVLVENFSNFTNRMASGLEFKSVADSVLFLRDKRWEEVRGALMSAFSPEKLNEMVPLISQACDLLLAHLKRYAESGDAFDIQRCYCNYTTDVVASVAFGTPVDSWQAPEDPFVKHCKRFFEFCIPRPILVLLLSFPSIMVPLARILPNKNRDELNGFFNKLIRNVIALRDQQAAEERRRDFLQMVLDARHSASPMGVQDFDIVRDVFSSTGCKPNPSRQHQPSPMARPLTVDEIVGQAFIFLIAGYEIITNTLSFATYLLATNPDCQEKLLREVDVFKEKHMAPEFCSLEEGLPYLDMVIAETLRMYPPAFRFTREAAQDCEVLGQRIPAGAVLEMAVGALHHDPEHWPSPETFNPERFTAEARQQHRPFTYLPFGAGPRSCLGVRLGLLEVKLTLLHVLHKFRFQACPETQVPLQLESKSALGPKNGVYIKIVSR

Substance-P receptor = Substance-P receptor (Homo sapiens, UniProt P25103); assay type: cell membranes, Membrane; conditions: cho; also: in other assays of this panel Not Active means under 50% inhibition at 10 µM
Substance-P receptor, sequence (P25103 whole entry): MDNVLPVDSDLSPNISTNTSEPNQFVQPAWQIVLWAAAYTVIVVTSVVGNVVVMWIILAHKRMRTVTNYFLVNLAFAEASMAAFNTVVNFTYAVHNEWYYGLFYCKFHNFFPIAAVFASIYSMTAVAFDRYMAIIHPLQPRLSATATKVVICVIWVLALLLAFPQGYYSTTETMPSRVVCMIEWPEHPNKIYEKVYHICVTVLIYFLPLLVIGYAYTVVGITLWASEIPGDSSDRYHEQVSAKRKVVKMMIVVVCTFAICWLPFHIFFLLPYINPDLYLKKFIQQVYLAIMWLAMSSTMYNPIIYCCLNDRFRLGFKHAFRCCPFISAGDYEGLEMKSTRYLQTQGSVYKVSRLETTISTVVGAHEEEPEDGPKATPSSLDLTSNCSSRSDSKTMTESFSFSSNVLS

[2] = target: T4, Alpha-2C adrenergic receptor (Homo sapiens, UniProt P18825); test: DRUGMATRIX: Adrenergic Alpha-2C radioligand binding (ligand: [3H] MK-912); assay type: cell membranes, Sf9, Membrane; conditions: for IC50: sf9
T4 sequence (P18825 whole entry): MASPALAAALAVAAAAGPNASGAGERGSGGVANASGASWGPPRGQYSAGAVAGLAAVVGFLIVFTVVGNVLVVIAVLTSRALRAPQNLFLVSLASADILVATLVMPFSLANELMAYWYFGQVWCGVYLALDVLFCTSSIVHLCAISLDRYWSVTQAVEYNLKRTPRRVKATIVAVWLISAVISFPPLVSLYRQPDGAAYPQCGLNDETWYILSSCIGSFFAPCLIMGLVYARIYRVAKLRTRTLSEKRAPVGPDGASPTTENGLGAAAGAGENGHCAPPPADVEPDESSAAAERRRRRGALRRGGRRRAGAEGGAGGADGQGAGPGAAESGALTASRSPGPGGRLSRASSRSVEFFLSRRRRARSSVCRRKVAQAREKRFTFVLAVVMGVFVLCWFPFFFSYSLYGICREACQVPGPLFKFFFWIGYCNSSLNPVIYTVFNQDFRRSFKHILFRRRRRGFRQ

| Structure (SMILES) | IC50 [1] | Ki [1] | IC50 (Cathepsin G) | IC50 (Cytochrome P450 2E1) | Ki (Cytochrome P450 2E1) | IC50 (Neutrophil elastase) | IC50 (Thromboxane-A synthase) | IC50 (Substance-P receptor) | IC50 [2] | pIC50 ([2]; read-out: IC50) | pKi ([2]; read-out: Ki) | pIC50 ([1]; read-out: IC50) |
| --- | --- | --- | --- | --- | --- | --- | --- | --- | --- | --- | --- | --- |
| Cc1c(F)c(N2CCNC(C)C2)cc2c1c(=O)c(C(=O)O)cn2C1CC1 (stereo not drawn) [GREPAFLOXACIN] | Not Active | Not Active | Not Active | Not Active | Not Active | Not Active | Not Active | Not Active | Not Active | – | – | – |
| [N-]=[N+]=CC(=O)OC[C@H](N)C(=O)O [AZASERINE] | Not Active | Not Active | Not Active | Not Active | Not Active | Not Active | Not Active | Not Active | Not Active | – | – | – |
| C#C[C@]1(O)CC[C@H]2[C@@H]3CCC4=Cc5oncc5C[C@]4(C)[C@H]3CC[C@@]21C [DANAZOL] | Not Active | Not Active | Not Active | Not Active | Not Active | Not Active | Not Active | Not Active | – | 4.62 | 5.46 | – |
| CO[C@H]1[C@@H](O)[C@H](N)[C@@H](O[C@H]2O[C@H]([C@H](C)N)CC[C@H]2N)[C@H](O)[C@@H]1N(C)C(=O)CN [ASTROMICIN] | Not Active | Not Active | Not Active | Not Active | Not Active | Not Active | Not Active | Not Active | Not Active | – | – | – |
| COc1ccc2cc(CCC(C)=O)ccc2c1 [NABUMETONE] | Not Active | Not Active | Not Active | Not Active | Not Active | Not Active | Not Active | Not Active | Not Active | – | – | – |
| NC(=O)N1c2ccccc2C=Cc2ccccc21 [CARBAMAZEPINE] | Not Active | Not Active | Not Active | Not Active | Not Active | Not Active | Not Active | Not Active | Not Active | – | – | – |
| Cc1c(N(C)CS(=O)(=O)[O-])c(=O)n(-c2ccccc2)n1C.[Na+] [DIPYRONE SODIUM] | Not Active | Not Active | Not Active | Not Active | Not Active | Not Active | Not Active | Not Active | Not Active | – | – | – |
| OCCN1CCN(CCCN2c3ccccc3Sc3ccc(Cl)cc32)CC1 [PERPHENAZINE] | Not Active | Not Active | Not Active | Not Active | Not Active | Not Active | Not Active | Not Active | Not Active | – | – | – |
| CC[C@]1(O)CC[C@H]2[C@@H]3CCC4=CCCC[C@@H]4[C@H]3CC[C@@]21C | Not Active | Not Active | Not Active | Not Active | Not Active | Not Active | Not Active | Not Active | Not Active | – | – | – |
| CCOC(=O)n1ccn(C)c1=S [CARBIMAZOLE] | Not Active | Not Active | Not Active | Not Active | Not Active | Not Active | Not Active | Not Active | Not Active | – | – | – |
| COc1ccc(Cc2nccc3cc(OC)c(OC)cc23)cc1OC [PAPAVERINE] | – | – | Not Active | Not Active | Not Active | Not Active | Not Active | Not Active | Not Active | – | – | 6.09 |
| C#C[C@]1(O)CC[C@H]2[C@@H]3CCc4cc(O)ccc4[C@H]3CC[C@@]21C [ETHINYL ESTRADIOL] | Not Active | Not Active | Not Active | Not Active | Not Active | Not Active | Not Active | Not Active | Not Active | – | – | – |
| C[C@H]([C@](O)(Cn1cncn1)c1ccc(F)cc1F)S(C)(=O)=O [GENACONAZOLE] | Not Active | Not Active | Not Active | Not Active | Not Active | Not Active | Not Active | Not Active | Not Active | – | – | – |
| CCOC(=O)C1=C(C)NC(C)=C(C(=O)OC)C1c1cccc(Cl)c1Cl (stereo not drawn) [FELODIPINE] | Not Active | Not Active | Not Active | Not Active | Not Active | Not Active | Not Active | Not Active | Not Active | – | – | – |
| CCOC(=O)[C@H](CCc1ccccc1)N[C@@H](C)C(=O)N1CCC[C@H]1C(=O)O | Not Active | Not Active | Not Active | Not Active | Not Active | Not Active | Not Active | Not Active | Not Active | – | – | – |
| CN1C(=O)CN=C(c2ccccc2)c2cc(Cl)ccc21 [DIAZEPAM] | Not Active | Not Active | Not Active | Not Active | Not Active | Not Active | Not Active | Not Active | Not Active | – | – | – |
| Nn1nnc2ccccc21 | Not Active | Not Active | Not Active | Not Active | Not Active | Not Active | Not Active | Not Active | Not Active | – | – | – |
| CC(C)(CO)C(O)C(=O)NCCCO (stereo not drawn) [PANTHENOL] | Not Active | Not Active | Not Active | Not Active | Not Active | Not Active | Not Active | Not Active | Not Active | – | – | – |
| O=C(O)Cc1ccc(-c2ccccc2)cc1 [FELBINAC] | Not Active | Not Active | Not Active | Not Active | Not Active | Not Active | Not Active | Not Active | Not Active | – | – | – |
| O=C(O)c1cccnc1 [NIACIN] | Not Active | Not Active | Not Active | Not Active | Not Active | Not Active | Not Active | Not Active | Not Active | – | – | – |
| C[C@H](C(=O)O)c1cccc(C(=O)c2ccccc2)c1 [DEXKETOPROFEN] | Not Active | Not Active | Not Active | Not Active | Not Active | Not Active | Not Active | Not Active | Not Active | – | – | – |
| CC[C@H]1OC(=O)[C@H](C)[C@@H](O[C@H]2C[C@@](C)(OC)[C@@H](O)[C@H](C)O2)[C@H](C)[C@@H](O[C@@H]2O[C@H](C)C[C@H](N(C)C)[C@H]2O)[C@](C)(OC)C[C@@H](C)C(=O)[C@H](C)[C@@H](O)[C@]1(C)O [CLARITHROMYCIN] | Not Active | Not Active | Not Active | Not Active | Not Active | Not Active | Not Active | Not Active | Not Active | – | – | – |

From ChEMBL document CHEMBL1909046, “DrugMatrix in vitro pharmacology data”
